Measured values published in patent US20260258172A1, “CATIONIC POLYMERS WITH SELECTIVE ANTIFUNGAL PROPERTIES” (Uniwersytet Jagiellonski, priority 2022, published 2026).
In brackets after ≈: the same amount, converted by molar mass.

Assays:
Type in all cases: cell-based
[1] = test system: Aspergillus fumigatus DSM 819; assay: Antifungal microdilution MIC test; conditions: comparative test; for MIC: Aspergillus fumigatus, DSM819
Description: (§1) In vitro tests of the antifungal activity of the polymers were performed with respect to selected fungal species obtained from international culture collections and the microorganism collection in the Department of Infection Control and Mycology, Chair of Microbiology, Jagiellonian University Medical College. The test was performed using the microdilution method in a liquid medium on flat-bottomed, 96-well polypropylene titration plates. The applied methodology was based on antifungal susceptibility testing procedures developed by the European Committee on Antimicrobial Susceptibility Testing (EUCAST) and on the Hancock Lab procedure for antimicrobial cationic peptides.
(§2) The test compounds were dissolved in sterile distilled water and starting concentrations of 5 g/L were prepared, from which a series of two-fold dilutions in water were obtained. Respective polymer dilutions were transferred in a volume of 20 μL on titration plates (wells 1-10). 20 μL of sterile distilled water was transferred to each of wells 11 and 12. Wells 1-11 were inoculated with fungi in a volume of 180 μL of fungal cell suspensions in a liquid medium, and 180 μL of the sterile medium was transferred to well 12. Fungal suspensions were prepared from fresh cultures on agar media by collecting spores using a sterile swab into sterile distilled water or sterile distilled water with Tween-20 added. Suspensions of certain strains were filtered to remove any hyphal elements (filters with a pore diameter of 20 μm and 10 μm were used). The suspensions were brought to a density of 0.5 on the McFarland scale, and subsequently diluted to 1:20 in a liquid RPMI-1640 medium with L-glutamine and without sodium bicarbonate, supplemented with glucose (2%) and buffered morpholinopropanesulfonic acid (MOPS) (0.165 mol/L).
(§3) Final polymer concentrations on plates after adding fungal suspensions in the liquid medium were 0.49-250 mg/L or 0.98-500 mg/L.
(§4) Incubation was performed at room temperature, 27° C., 37° C., depending on the fungal species, until fungal growth was obtained in growth control (well 11). After the incubation period, fungal growth was evaluated visually and the lowest polymer concentrations that caused complete fungal growth inhibition (MIC (minimal inhibitory concentration) values) were determined.
(§5) A test was performed on selected fungal strains to compare MIC values of the PMAPTAC133 polymer with the MIC values of two known antifungal drugs (terbinafine and ciclopirox), used in the treatment of fungal infections of glabrous skin, hairy skin and nails.
(§6) The procedure described in the section above (Example 8) was used in the testing.
(§7) The drugs were dissolved in dimethyl sulfoxide (DMSO) and starting concentrations of 4 g/L were prepared, from which series of two-fold dilutions in DMSO were obtained. Respective […] concentrations were diluted to 1:100 in sterile water and subsequently transferred to wells 1-10 on a titration plate in a volume of 20 μL. Wells 11 and 12 were filled up with 20 μL DMSO diluted to 1:10 in water. Wells 1-11 were inoculated with fungi in a volume of 180 μL of fungal cell suspensions in a liquid medium, and […] of the sterile medium was transferred to well 12. Final drug concentrations on plates after adding fungal suspensions in the liquid medium were 0.008-4 mg/L.

Trichophyton rubrum D197 = assay: Antifungal microdilution MIC test; conditions: comparative test
Description: as §1, §2, §3, §4, §5, §6, §7

[2] = test system: Aspergillus brasiliensis ATCC 16404; assay: Antifungal microdilution MIC test; conditions: comparative test; for MIC: Aspergillus brasiliensis, ATCC16404
Description: as §1, §2, §3, §4, §5, §6, §7

[3] = test system: Trichophyton tonsurans DSM 12285; assay: Antifungal microdilution MIC test; conditions: DSM12285, comparative test
Description: as §1, §2, §3, §4, §5, §6, §7

[4] = test system: Fusarium solani strain 155; assay: Antifungal microdilution MIC test; conditions: comparative test
Description: as §1, §2, §3, §4, §5, §6, §7

[5] = test system: Trichophyton rubrum DSM 16111; assay: Antifungal microdilution MIC test; conditions: DSM16111, comparative test
Description: as §1, §2, §3, §4, §5, §6, §7

[6] = test system: Aspergillus fumigatus SU 56; assay: Antifungal microdilution MIC test; conditions: comparative test; for MIC: Aspergillus fumigatus, SU56
Description: as §1, §2, §3, §4, §5, §6, §7

[7] = test system: Trichophyton tonsurans 264; assay: Antifungal microdilution MIC test; conditions: comparative test
Description: as §1, §2, §3, §4, §5, §6, §7

[8] = test system: Trichophyton interdigitale D182; assay: Antifungal microdilution MIC test; conditions: comparative test
Description: as §1, §2, §3, §4, §5, §6, §7

[9] = test system: Scopulariopsis brevicaulis 34; assay: Antifungal microdilution MIC test; conditions: comparative test
Description: as §1, §2, §3, §4, §5, §6, §7

Cryptococcus neoformans = assay: Antifungal microdilution MIC test; conditions: Cryptococcus neoformans, comparative test
Description: as §1, §2, §3, §4, §5, §6, §7

[10] = test system: Aspergillus terreus DSM 1958; assay: Antifungal microdilution MIC test; conditions: comparative test; for MIC: Aspergillus terreus, DSM1958
Description: as §1, §2, §3, §4, §5, §6, §7

Trichophyton rubrum D320 = assay: Antifungal microdilution MIC test; conditions: comparative test
Description: as §1, §2, §3, §4, §5, §6, §7

[11] = test system: Aspergillus flavus ATCC 204304; assay: Antifungal microdilution MIC test; conditions: comparative test; for MIC: Aspergillus flavus, ATCC204304
Description: as §1, §2, §3, §4, §5, §6, §7

[12] = test system: Trichophyton interdigitale 251; assay: Antifungal microdilution MIC test; conditions: comparative test, incubation time 72 h
Description: as §1, §2, §3, §4, §5, §6, §7

[13] = test system: Scopulariopsis brevicaulis DSM 9122; assay: Antifungal microdilution MIC test; conditions: DSM9122, comparative test
Description: as §1, §2, §3, §4, §5, §6, §7

[14] = test system: Trichophyton interdigitale DSM4167; assay: Antifungal microdilution MIC test; conditions: comparative test
Description: as §1, §2, §3, §4, §5, §6, §7

[15] = test system: Trichophyton mentagrophytes ATCC 18484; assay: Antifungal microdilution MIC test; conditions: comparative test; for MIC: Trichophyton mentagrophytes, ATCC18484
Description: as §1, §2, §3, §4, §5, §6, §7

[16] = test system: Candida albicans ATCC 90028; assay: Antifungal microdilution MIC test; conditions: ATCC90028, comparative test
Description: as §1, §2, §3, §4, §5, §6, §7

[17] = test system: 3T3-L1 murine embryonic fibroblast line; assay: Neutral red uptake toxicity test, 3T3-L1 fibroblasts; conditions: medium with serum
Description: Preliminary tests were conducted in the 3T3-L1 murine embryonic fibroblast line (ATCC, CL-173™), an immortalized line (highly tolerant cells). DMEM was used as the medium. 24 h after seeding and successful adhesion, polymers dissolved in the medium were added to the cells (the medium was first replaced with a serum-free medium in serum-free experiments), and viable cells were quantified after another 24 h using the neutral red uptake assay.
The toxicity of ciclopirox and terbinafine, two commercially used antifungal drugs, was evaluated in similar conditions (the same cell line, medium composition and exposure time).

Candida krusei ATCC 6258 = assay: Antifungal microdilution MIC test; conditions: Pichia kudriavzevii, ATCC6258, comparative test
Description: as §1, §2, §3
as §4, with “determined. […]” for “determined.”

Fusarium solani DSM 1164 = assay: Antifungal microdilution MIC test; conditions: DSM1164, comparative test
Description: as §1, §2, §3
as §4, with “determined. […]” for “determined.”

Fusarium oxysporum 109 = assay: Antifungal microdilution MIC test; conditions: comparative test
Description: as §1, §2, §3
as §4, with “determined. […]” for “determined.”

[18] = test system: Candida glabrata ATCC 15545; assay: Antifungal microdilution MIC test; conditions: Nakaseomyces glabratus, ATCC15545, comparative test
Description: as §1, §2, §3
as §4, with “determined. […]” for “determined.”

[19] = test system: Fusarium oxysporum DSM 841; assay: Antifungal microdilution MIC test; conditions: DSM841, comparative test
Description: as §1, §2, §3
as §4, with “determined. […]” for “determined.”

MIC ([1]; incubation time 24 h): > 4 µg/mL
MIC ([1]; incubation time 48 h): > 4 µg/mL
MIC (Trichophyton rubrum D197; incubation time 48 h): 0.125 µg/mL (≈ 0.429 µM)
MIC (Trichophyton rubrum D197; incubation time 72 h): 0.25 µg/mL (≈ 0.858 µM)
MIC ([2]; incubation time 24 h): 2 µg/mL (≈ 6.86 µM)
MIC ([2]; incubation time 48 h): > 4 µg/mL
MIC ([3]; incubation time 48 h): 0.25 µg/mL (≈ 0.858 µM)
MIC ([3]; incubation time 72 h): 0.25 µg/mL (≈ 0.858 µM)
MIC ([4]; incubation time 24 h): > 4 µg/mL
MIC ([4]; incubation time 48 h): > 4 µg/mL
MIC ([5]; incubation time 24 h): 0.06 µg/mL (≈ 0.206 µM)
MIC ([5]; incubation time 48 h): 0.25 µg/mL (≈ 0.858 µM)
MIC ([5]; incubation time 72 h): 0.25 µg/mL (≈ 0.858 µM)
MIC ([6]; incubation time 24 h): 4 µg/mL (≈ 13.7 µM)
MIC ([6]; incubation time 48 h): > 4 µg/mL
MIC ([7]; incubation time 48 h): 0.5 µg/mL (≈ 1.72 µM)
MIC ([7]; incubation time 72 h): 0.5 µg/mL (≈ 1.72 µM)
MIC ([8]; incubation time 48 h): 0.25 µg/mL (≈ 0.858 µM)
MIC ([8]; incubation time 72 h): 0.5 µg/mL (≈ 1.72 µM)
MIC ([9]; incubation time 24 h): > 4 µg/mL
MIC ([9]; incubation time 48 h): > 4 µg/mL
MIC (Cryptococcus neoformans; incubation time 24 h): > 4 µg/mL
MIC (Cryptococcus neoformans; incubation time 48 h): > 4 µg/mL
MIC ([10]; incubation time 24 h): 2 µg/mL (≈ 6.86 µM)
MIC ([10]; incubation time 48 h): > 4 µg/mL
MIC (Trichophyton rubrum D320; incubation time 48 h): 0.125 µg/mL (≈ 0.429 µM)
MIC (Trichophyton rubrum D320; incubation time 72 h): 2 µg/mL (≈ 6.86 µM)
MIC ([11]; incubation time 24 h): 4 µg/mL (≈ 13.7 µM)
MIC ([11]; incubation time 48 h): > 4 µg/mL
MIC [12]: 1 µg/mL (≈ 3.43 µM)
MIC ([13]; incubation time 24 h): > 4 µg/mL
MIC ([13]; incubation time 48 h): > 4 µg/mL
MIC ([14]; incubation time 48 h): 0.25 µg/mL (≈ 0.858 µM)
MIC ([14]; incubation time 72 h): 0.25 µg/mL (≈ 0.858 µM)
MIC ([15]; incubation time 24 h): 0.125 µg/mL (≈ 0.429 µM)
MIC ([15]; incubation time 48 h): 0.5 µg/mL (≈ 1.72 µM)
MIC ([15]; incubation time 72 h): 1 µg/mL (≈ 3.43 µM)
MIC ([16]; incubation time 24 h): > 4 µg/mL
MIC ([16]; incubation time 48 h): > 4 µg/mL
MIC (Candida krusei ATCC 6258; incubation time 24 h): > 4 µg/mL
MIC (Candida krusei ATCC 6258; incubation time 48 h): > 4 µg/mL
MIC (Fusarium solani DSM 1164; incubation time 24 h): > 4 µg/mL
MIC (Fusarium solani DSM 1164; incubation time 48 h): > 4 µg/mL
MIC (Fusarium oxysporum 109; incubation time 24 h): > 4 µg/mL
MIC (Fusarium oxysporum 109; incubation time 48 h): > 4 µg/mL
MIC ([18]; incubation time 24 h): > 4 µg/mL
MIC ([18]; incubation time 48 h): > 4 µg/mL
MIC ([19]; incubation time 24 h): > 4 µg/mL
MIC ([19]; incubation time 48 h): > 4 µg/mL
SMILES: CN(C/C=C/C#CC(C)(C)C)Cc1cccc2ccccc12 [Terbinafine, terbinafine]
concentration with growth suppression ([1]; incubation time 24 h): 2 mg/L
concentration with (clear) growth suppression ([2]; incubation time 48 h): 2 mg/L
concentration with growth suppression ([6]; incubation time 48 h): >4 mg/L
concentration with growth suppression ([10]; incubation time 48 h): 2 mg/L
concentration with growth suppression ([11]; incubation time 48 h): 2 mg/L
concentration with marginal growth ([15]; incubation time 48 h): 0.25 mg/L
concentration at which the number of viable cells decreased to less than 50% ([17]; 24 h exposure): 25000 ng/mL
viable cells ([17]; concentrations of 50, 75 and 100 μg/mL, 24 h): ≤ 10%
